# Laboratory results: ChEMBL document CHEMBL3797055, “Glabridin-chalcone hybrid molecules: drug resistance reversal agent against clinical isolates of methicillin-resistant Staphylococcus aureus” (Medchemcomm, 2016)
# Columns and labels:
# Type in all cases: functional
# Staphylococcus aureus [1] = assay: Antibacterial activity against clinical isolates of methicillin-resistant Staphylococcus aureus P4423 by broth microdilution assay
# Staphylococcus aureus [2] = assay: Potentiation of norfloxacin-induced antibacterial activity against clinical isolates of methicillin-resistant Staphylococcus aureus ST2071 assessed as reduction in norfloxacin MIC by checkerboard assay relative to control
# Staphylococcus aureus [3] = assay: Ratio of MIC for clinical isolates of methicillin-resistant Staphylococcus aureus P4423 to MIC for clinical isolates of methicillin-resistant Staphylococcus aureus P4423 in presence of norfloxacin
# Staphylococcus aureus [4] = assay: Antibacterial activity against clinical isolates of methicillin-resistant Staphylococcus aureus ST10342 by broth microdilution assay
# Staphylococcus aureus [5] = assay: Ratio of MIC for clinical isolates of methicillin-resistant Staphylococcus aureus ST10760 to MIC for clinical isolates of methicillin-resistant Staphylococcus aureus ST10760 in presence of norfloxacin
# Staphylococcus aureus [6] = assay: Ratio of MIC for clinical isolates of methicillin-resistant Staphylococcus aureus ST2071 to MIC for clinical isolates of methicillin-resistant Staphylococcus aureus ST2071 in presence of norfloxacin
# Staphylococcus aureus [7] = assay: Bactericidal activity against clinical isolates of methicillin-resistant Staphylococcus aureus ST2071 assessed as reduction in viability at 0.5 MIC after 24 hrs by time kill kinetic analysis in presence of norfloxacin relative to control
# Staphylococcus aureus [8] = assay: Potentiation of norfloxacin-induced antibacterial activity against clinical isolates of methicillin-resistant Staphylococcus aureus ST10342 assessed as norfloxacin MIC by checkerboard assay
# Staphylococcus aureus [9] = assay: Potentiation of norfloxacin-induced antibacterial activity against clinical isolates of methicillin-resistant Staphylococcus aureus ST10342 assessed as reduction in norfloxacin MIC by checkerboard assay relative to control
# Staphylococcus aureus [10] = assay: Potentiation of norfloxacin-induced antibacterial activity against clinical isolates of methicillin-resistant Staphylococcus aureus P4629 assessed as norfloxacin MIC by checkerboard assay
# Staphylococcus aureus [11] = assay: Ratio of MIC for clinical isolates of methicillin-resistant Staphylococcus aureus ST10342 to MIC for clinical isolates of methicillin-resistant Staphylococcus aureus ST10342 in presence of norfloxacin
# Staphylococcus aureus [12] = assay: Antibacterial activity against clinical isolates of methicillin-resistant Staphylococcus aureus ST10342 by checkerboard assay in presence of norfloxacin
# Staphylococcus aureus [13] = assay: Potentiation of norfloxacin-induced antibacterial activity against clinical isolates of methicillin-resistant Staphylococcus aureus ST2071 assessed as norfloxacin MIC by checkerboard assay
# Staphylococcus aureus [14] = assay: Antibacterial activity against Staphylococcus aureus MTCC 96 by broth microdilution assay
# Staphylococcus aureus [15] = assay: Ratio of MIC for clinical isolates of methicillin-resistant Staphylococcus aureus P4629 to MIC for clinical isolates of methicillin-resistant Staphylococcus aureus P4629 in presence of norfloxacin
# Staphylococcus aureus [16] = assay: Potentiation of norfloxacin-induced antibacterial activity against clinical isolates of methicillin-resistant Staphylococcus aureus P4423 assessed as norfloxacin MIC by checkerboard assay
# Staphylococcus aureus [17] = assay: Potentiation of norfloxacin-induced antibacterial activity against clinical isolates of methicillin-resistant Staphylococcus aureus ST10760 assessed as reduction in norfloxacin MIC by checkerboard assay relative to control
# Staphylococcus aureus [18] = assay: Potentiation of norfloxacin-induced antibacterial activity against clinical isolates of methicillin-resistant Staphylococcus aureus ST10760 assessed as norfloxacin MIC by checkerboard assay
# Staphylococcus aureus [19] = assay: Potentiation of norfloxacin-induced antibacterial activity against clinical isolates of methicillin-resistant Staphylococcus aureus P4650 assessed as reduction in norfloxacin MIC by checkerboard assay relative to control
# Staphylococcus aureus [20] = assay: Antibacterial activity against clinical isolates of methicillin-resistant Staphylococcus aureus P4650 by checkerboard assay in presence of norfloxacin
# Staphylococcus aureus [21] = assay: Potentiation of norfloxacin-induced antibacterial activity against clinical isolates of methicillin-resistant Staphylococcus aureus P4423 assessed as reduction in norfloxacin MIC by checkerboard assay relative to control
# Staphylococcus aureus [22] = assay: Antibacterial activity against clinical isolates of methicillin-resistant Staphylococcus aureus P4629 by broth microdilution assay
# Staphylococcus aureus [23] = assay: Bactericidal activity against clinical isolates of methicillin-resistant Staphylococcus aureus ST2071 assessed as reduction in viability at 0.5 MIC after 24 hrs by time kill kinetic analysis relative to control
# Staphylococcus aureus [24] = assay: Antibacterial activity against clinical isolates of methicillin-resistant Staphylococcus aureus ST2071 by checkerboard assay in presence of norfloxacin
# Staphylococcus aureus [25] = assay: Antibacterial activity against clinical isolates of methicillin-resistant Staphylococcus aureus ST10760 by broth microdilution assay
# Staphylococcus aureus [26] = assay: Ratio of MIC for clinical isolates of methicillin-resistant Staphylococcus aureus P4650 to MIC for clinical isolates of methicillin-resistant Staphylococcus aureus P4650 in presence of norfloxacin
# Staphylococcus aureus [27] = assay: Potentiation of norfloxacin-induced antibacterial activity against clinical isolates of methicillin-resistant Staphylococcus aureus P4650 assessed as norfloxacin MIC by checkerboard assay
# Staphylococcus aureus [28] = assay: Antibacterial activity against clinical isolates of methicillin-resistant Staphylococcus aureus P4629 by checkerboard assay in presence of norfloxacin
# Staphylococcus aureus [29] = assay: Antibacterial activity against clinical isolates of methicillin-resistant Staphylococcus aureus ST2071 by broth microdilution assay
# Staphylococcus aureus [30] = assay: Bactericidal activity against clinical isolates of methicillin-resistant Staphylococcus aureus ST2071 assessed as reduction in viability at MIC after 24 hrs by time kill kinetic analysis relative to control
# Staphylococcus aureus [31] = assay: Antibacterial activity against clinical isolates of methicillin-resistant Staphylococcus aureus P4650 by broth microdilution assay
# Staphylococcus aureus [32] = assay: Antibacterial activity against clinical isolates of methicillin-resistant Staphylococcus aureus ST10760 by checkerboard assay in presence of norfloxacin
# Staphylococcus aureus [33] = assay: Antibacterial activity against clinical isolates of methicillin-resistant Staphylococcus aureus P4423 by checkerboard assay in presence of norfloxacin
# Staphylococcus aureus [34] = assay: Potentiation of norfloxacin-induced antibacterial activity against clinical isolates of methicillin-resistant Staphylococcus aureus P4629 assessed as reduction in norfloxacin MIC by checkerboard assay relative to control
SMILES,MIC (Staphylococcus aureus [1]) [µg/mL],fold change (FC) (Staphylococcus aureus [2]),MIC (Staphylococcus aureus [4]) [µg/mL],MIC (Staphylococcus aureus [8]) [µg/mL],fold change (FC) (Staphylococcus aureus [9]),MIC (Staphylococcus aureus [10]) [µg/mL],fractional inhibitory concentration index (FICI) (Staphylococcus aureus [12]),MIC (Staphylococcus aureus [13]) [µg/mL],MIC (Staphylococcus aureus [14]) [µg/mL],MIC (Staphylococcus aureus [16]) [µg/mL],fold change (FC) (Staphylococcus aureus [17]),MIC (Staphylococcus aureus [18]) [µg/mL],fold change (FC) (Staphylococcus aureus [19]),fractional inhibitory concentration index (FICI) (Staphylococcus aureus [20]),fold change (FC) (Staphylococcus aureus [21]),MIC (Staphylococcus aureus [22]) [µg/mL],fold change (FC) (Staphylococcus aureus [23]),MIC (Staphylococcus aureus [25]) [µg/mL],MIC (Staphylococcus aureus [29]) [µg/mL],MIC (Staphylococcus aureus [31]) [µg/mL],other results
COc1ccc([C@@H]2COc3c(cc(/C=C/C(=O)c4ccco4)c4c3C=CC(C)(C)O4)C2)c(OC)c1,12.5,8,12.5,31.2,8,125,0.5,62.5,12.5,31.2,8,62.5,4,0.625,8,12.5,<=1.52,25,25,12.5,Ratio (Staphylococcus aureus [3]): 4; Ratio (Staphylococcus aureus [5]): 4; Ratio (Staphylococcus aureus [6]): 4; fold change (FC) (Staphylococcus aureus [7]): <=3; Ratio (Staphylococcus aureus [11]): 4; Ratio (Staphylococcus aureus [15]): 4; fractional inhibitory concentration index (FICI) (Staphylococcus aureus [24]): 0.375; Ratio (Staphylococcus aureus [26]): 4; MIC (Staphylococcus aureus [27]): 62.5 µg/mL; fractional inhibitory concentration index (FICI) (Staphylococcus aureus [28]): 0.625; fold change (FC) (Staphylococcus aureus [30]): 2; fractional inhibitory concentration index (FICI) (Staphylococcus aureus [32]): 0.375; fractional inhibitory concentration index (FICI) (Staphylococcus aureus [33]): 0.5; fold change (FC) (Staphylococcus aureus [34]): 4
CC1(C)C=Cc2c(ccc3c2OC[C@@H](c2ccc(O)cc2O)C3)O1 [GLABRIDIN],12.5,2,12.5,125,2,125,1,250,3.12,125,4,125,4,0.5,2,12.5,<=1.52,12.5,12.5,12.5,Ratio (Staphylococcus aureus [15]): 4; fractional inhibitory concentration index (FICI) (Staphylococcus aureus [24]): 0.75; Ratio (Staphylococcus aureus [26]): 4; MIC (Staphylococcus aureus [27]): 62.5 µg/mL; fractional inhibitory concentration index (FICI) (Staphylococcus aureus [28]): 0.5; fold change (FC) (Staphylococcus aureus [30]): 2; fractional inhibitory concentration index (FICI) (Staphylococcus aureus [32]): 0.75; fractional inhibitory concentration index (FICI) (Staphylococcus aureus [33]): 1; fold change (FC) (Staphylococcus aureus [34]): 4
COc1ccc([C@@H]2COc3c(cc(/C=C/C(=O)c4ccc(OC)c(OC)c4)c4c3C=CC(C)(C)O4)C2)c(OC)c1,50,4,50,31.2,8,62.5,0.375,125,25,62.5,4,125,4,0.5,4,50,<=1.52,50,50,50,Ratio (Staphylococcus aureus [6]): <=4; fold change (FC) (Staphylococcus aureus [7]): <=4; Ratio (Staphylococcus aureus [11]): <=4; Ratio (Staphylococcus aureus [15]): <=4; fractional inhibitory concentration index (FICI) (Staphylococcus aureus [24]): 0.5; Ratio (Staphylococcus aureus [26]): <=4; MIC (Staphylococcus aureus [27]): 62.5 µg/mL; fractional inhibitory concentration index (FICI) (Staphylococcus aureus [28]): 0.375; fold change (FC) (Staphylococcus aureus [30]): 2; fractional inhibitory concentration index (FICI) (Staphylococcus aureus [32]): 0.75; fractional inhibitory concentration index (FICI) (Staphylococcus aureus [33]): 0.75; fold change (FC) (Staphylococcus aureus [34]): 8
COc1cc(OC)c([C@@H]2COc3c(cc(/C=C/C(=O)c4ccc(OC)c(OC)c4)c4c3C=CC(C)(C)O4)C2)cc1/C=C/C(=O)c1ccc(OC)c(OC)c1,25,4,12.5,62.5,4,125,0.75,125,12.5,62.5,8,62.5,4,0.75,4,12.5,<=1.52,25,25,12.5,Ratio (Staphylococcus aureus [3]): 4; Ratio (Staphylococcus aureus [5]): 4; Ratio (Staphylococcus aureus [6]): 4; fold change (FC) (Staphylococcus aureus [7]): <=3; fractional inhibitory concentration index (FICI) (Staphylococcus aureus [24]): 0.5; MIC (Staphylococcus aureus [27]): 62.5 µg/mL; fractional inhibitory concentration index (FICI) (Staphylococcus aureus [28]): 0.5; fold change (FC) (Staphylococcus aureus [30]): 2; fractional inhibitory concentration index (FICI) (Staphylococcus aureus [32]): 0.375; fractional inhibitory concentration index (FICI) (Staphylococcus aureus [33]): 0.75; fold change (FC) (Staphylococcus aureus [34]): 4
COc1cccc(C(=O)/C=C/c2cc3c(c4c2OC(C)(C)C=C4)OC[C@@H](c2ccc(OC)cc2OC)C3)c1,25,,25,,,,,,25,,,,,,,25,,25,25,25,
COc1ccc([C@@H]2COc3c(cc(/C=C/C(=O)c4ccc[nH]4)c4c3C=CC(C)(C)O4)C2)c(OC)c1,> 100,,> 100,,,,,,100,,,,,,,> 100,,> 100,> 100,> 100,
